Laboratory results reported in ChEMBL document CHEMBL1128193, “4-(Heteroarylthio)-2-biphenylyltetrazoles as nonpeptide angiotensin II antagonists” (J Med Chem, 1995).

Each compound was assayed against T1, Angiotensin II receptor (Rattus norvegicus, UniProt P29089+P25095+P35351) (assay: Displacement of [3H]-AII from the Angiotensin II receptor isolated from the liver of rats).
T1 sequence (P29089 whole entry): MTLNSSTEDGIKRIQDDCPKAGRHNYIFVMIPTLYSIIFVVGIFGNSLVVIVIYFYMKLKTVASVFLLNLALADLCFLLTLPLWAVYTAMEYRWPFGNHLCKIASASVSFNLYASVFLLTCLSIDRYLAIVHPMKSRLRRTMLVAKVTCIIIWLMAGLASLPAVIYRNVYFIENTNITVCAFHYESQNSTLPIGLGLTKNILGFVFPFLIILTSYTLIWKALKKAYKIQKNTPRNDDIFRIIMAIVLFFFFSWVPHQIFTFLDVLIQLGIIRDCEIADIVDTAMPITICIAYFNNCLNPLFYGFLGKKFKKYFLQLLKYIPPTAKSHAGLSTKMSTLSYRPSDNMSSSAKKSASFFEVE
T1 sequence (P25095 whole entry): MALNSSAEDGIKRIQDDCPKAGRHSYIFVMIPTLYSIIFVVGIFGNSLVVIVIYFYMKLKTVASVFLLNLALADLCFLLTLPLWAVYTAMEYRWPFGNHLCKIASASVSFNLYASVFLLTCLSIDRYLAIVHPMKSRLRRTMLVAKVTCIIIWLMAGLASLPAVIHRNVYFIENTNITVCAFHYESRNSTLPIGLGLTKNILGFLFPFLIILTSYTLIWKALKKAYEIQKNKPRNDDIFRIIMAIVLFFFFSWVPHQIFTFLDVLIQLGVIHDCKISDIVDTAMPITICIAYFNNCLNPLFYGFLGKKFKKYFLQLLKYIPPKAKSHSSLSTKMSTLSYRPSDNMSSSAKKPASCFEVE
T1 sequence (P35351 whole entry): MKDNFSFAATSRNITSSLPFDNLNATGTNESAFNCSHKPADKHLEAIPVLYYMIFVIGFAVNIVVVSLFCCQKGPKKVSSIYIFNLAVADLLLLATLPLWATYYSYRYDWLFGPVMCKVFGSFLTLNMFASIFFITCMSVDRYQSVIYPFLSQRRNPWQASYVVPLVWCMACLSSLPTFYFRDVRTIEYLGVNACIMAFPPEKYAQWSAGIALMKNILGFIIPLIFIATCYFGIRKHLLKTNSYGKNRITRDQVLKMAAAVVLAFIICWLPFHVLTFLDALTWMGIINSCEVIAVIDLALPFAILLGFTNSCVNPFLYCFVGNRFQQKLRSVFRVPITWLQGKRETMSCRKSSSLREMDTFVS
CCc1cc(Sc2ccc(-c3ccccc3-c3nn[nH]n3)cc2)c2ncccc2n1 showed an IC50 of 20 nM. Cc1cc(SCc2ccc(-c3ccccc3-c3nn[nH]n3)cc2)c2ccccc2n1 showed an IC50 of 370 nM. Cc1nc(Sc2ccc(-c3ccccc3-c3nn[nH]n3)cc2)c2cc[nH]c2n1 gave an IC50 of over 10000 nM. Cc1cc(OCc2ccc(-c3ccccc3-c3nn[nH]n3)cc2)c2ccccc2n1 showed an IC50 of 31 nM. Cc1nc(Sc2ccc(-c3ccccc3-c3nn[nH]n3)cc2)c2ccccc2n1 gave an IC50 of 350 nM. Cc1cc(S(=O)(=O)c2ccc(-c3ccccc3-c3nn[nH]n3)cc2)c2ccccc2[n+]1[O-] gave an IC50 of over 10000 nM. Cc1cc(Sc2ccc(-c3ccccc3-c3nnn(C(c4ccccc4)(c4ccccc4)c4ccccc4)n3)cc2)c2ccccc2n1 was tested, and the IC50 was 4700 nM. Work on Cc1cc(CCc2ccc(-c3ccccc3-c3nn[nH]n3)cc2)c2ccccc2n1 yielded an IC50 of 270 nM.
